Calls of active or inactive are those of the source. No cut-off for these calls is given here.

The test system of series [1] is A549. The experiment in a line: Cytotoxicity against human A549 cells assessed as growth inhibition after 72 hrs by MTT assay. It is filed as functional, cell-based. To be noted: A549, 72 h. For orientation: Tetrazolium assays rely on reduction of a dye to a coloured formazan, in cell work by metabolically active cells.
Series [2] has as its system MCF7. The experiment in a line: Cytotoxicity against human MCF7 cells assessed as growth inhibition after 72 hrs by MTT assay. The note with it: MCF7, 72 h. The format is functional, cell-based.
Series [3] relates to L02. The experiment in a line: Cytotoxicity against human L02 cells assessed as growth inhibition after 72 hrs by MTT assay. It is filed as cell-based. The note with it: L02, 72 h.
The nature of series [4]: Selectivity index, ratio of IC50 for human L02 cells to IC50 for human A549 cells. The format is toxicity. The note with it: L02 cells versus A549 cells, read-out: Ratio IC50.
The subject of series [5] is A549. The experiment in a line: Induction of morphological changes in nucleus of human A549 cells at 10 to 30 nM after 72 hrs by DAPI staining-based fluorescence microscopic method. It is filed as functional, cell-based.
Series [6] has as its system A549. The experiment in a line: Induction of apoptosis in human A549 cells assessed as early apoptotic cells at 10 nM after 72 hrs by annexin V-FITC/propidium iodide staining-based flow cytometric method (reference value: 3%). The format is functional. In general terms: In flow cytometry, cells or beads pass a laser one at a time.
Series [7] has as its system A549. The experiment in a line: Induction of apoptosis in human A549 cells assessed as early apoptotic cells at 100 nM after 72 hrs by annexin V-FITC/propidium iodide staining-based flow cytometric method (reference value: 3%). The format is functional.
Series [8] relates to A549. The experiment in a line: Induction of apoptosis in human A549 cells assessed as necrotic cells at 100 nM after 72 hrs by annexin V-FITC/propidium iodide staining-based flow cytometric method (reference value: 0.1%). The format is functional.
The subject of series [9] is A549. The experiment in a line: Induction of apoptosis in human A549 cells assessed as viable cells at 100 nM after 72 hrs by annexin V-FITC/propidium iodide staining-based flow cytometric method (reference value: 92.8%). To be noted: A549, 72 h, read-out: Activity. It is filed as functional.
Series [10] has as its system A549. The experiment in a line: Induction of apoptosis in human A549 cells assessed as viable cells at 200 nM after 72 hrs by annexin V-FITC/propidium iodide staining-based flow cytometric method (reference value: 92.8%). The format is functional. To be noted: A549, 72 h, read-out: Activity.
Series [11] deals with L02. The experiment in a line: Induction of apoptosis in human L02 cells assessed as late apoptotic cells at 10 nM after 72 hrs by annexin V-FITC/propidium iodide staining-based flow cytometric method (reference value: 1.6%). It is filed as cell-based. The note with it: l02, 72 h, 0.01 µM.
Series [12] can be described thus: Induction of apoptosis in human L02 cells assessed as viable cells at 10 nM after 72 hrs by annexin V-FITC/propidium iodide staining-based flow cytometric method (reference value: 96.3%). The format is cell-based. To be noted: read-out: Activity.
Series [13] has as its system L02. The experiment in a line: Induction of apoptosis in human L02 cells assessed as late apoptotic cells at 100 nM after 72 hrs by annexin V-FITC/propidium iodide staining-based flow cytometric method (reference value: 1.6%). It is filed as cell-based. To be noted: l02, 72 h, 0.1 µM.
Series [14] relates to L02. The experiment in a line: Induction of apoptosis in human L02 cells assessed as necrotic cells at 100 nM after 72 hrs by annexin V-FITC/propidium iodide staining-based flow cytometric method (reference value: 0%). To be noted: l02, 72 h, 0.1 µM. It is filed as cell-based.
Series [15] relates to A549. The experiment in a line: Cell cycle arrest in human A549 cells assessed as accumulation at S phase at 10 nM after 72 hrs by propidium iodide staining-based flow cytometric method (reference value: 24.48%). The format is functional.
Series [16] deals with L02. The experiment in a line: Cell cycle arrest in human L02 cells assessed as accumulation at S phase at 5 nM after 72 hrs by propidium iodide staining-based flow cytometric method (reference value: 25.78%). The format is ADME. To be noted: l02, 72 h, 0.005 µM.

As to `COc1cc([C@@H]2c3cc4c(cc3[C@H](OC(=O)CN(C)C(=O)OC(C)(C)C)[C@H]3COC(=O)[C@H]23)OCO4)cc(OC)c1OC`, the IC50 in [1] was 9.5 nM; in [2], 133 nM; in [3], 160 nM. Also, the selectivity ratio in [4] turned out to be 16.9. Moreover, the result in series [5] was Active. For the same compound, the Activity worked out at 4.1% in [6]; 84.6% in series [7]; 0% in series [8]; 1.6% in [11]; 2.1% in series [13]; 0% in [14]. In addition, the Activity is 27.26% in series [15] and 24.04% in series [16]. The viability at 0.1 µM in series [9] amounted to 12.4%. Further, the viability at 0.2 µM in series [10] turned out to be 5.1%. Also, the viability at 72 h, 0.01 µM in [12] amounted to 94.1%.

What is called IC50 is the point on the concentration scale where inhibition reaches its midpoint.

Values taken from ChEMBL document CHEMBL4152293, “Synthesis and biological evaluation of podophyllotoxin derivatives as selective antitumor agents” (Eur J Med Chem, 2018).
